In general, IC50 refers to the concentration needed to halve the response being measured.

Each structure is given as a SMILES string.

Assay [1] has as its target T1, Erk1 (Homo sapiens, UniProt P27361).
T1 construct: purchased Millipore 14-439
Kind of assay: Protein Mass Modification Assay (intact protein MALDI, 60 min, 10-fold excess of compound). The format is binding. Summed up:
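Human Erk1 was incubated 60 min at room temperature with a 10-fold molar excess of compound, then analysed as intact protein by MALDI with sinapinic acid matrix. The centroid mass shift versus untreated protein was divided by compound molecular weight to give percent modified protein.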

Assay [2] relates to ERK1/2 phosphorylation of p90RSK in HCT116 cells. Kind of assay: Detection of total and phospho-RSK by MSD ELISA (HCT116). The format is cell-based. The conditions noted are these: Homo sapiens, HCT-116, read-out: ERK1/ERK2 PRSK HCT116 EC50. The procedure, abridged: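 HCT116 cells treated with compound in RPMI/10% FBS for 2 h at 37° C, then lysed. Phospho-RSK (Ser380) and total RSK in lysates measured by MSD sandwich electrochemiluminescence ELISA as a readout of ERK1/2 activity.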
Background: ELISA stands for enzyme-linked immunosorbent assay.

For assay [3], the target named is T2, MEK1 activated ERK1 (Homo sapiens, UniProt P27361).
T2 construct: purchased Millipore (Billerica, Mass.) 14-439-K
T2 sequence (P27361 whole entry): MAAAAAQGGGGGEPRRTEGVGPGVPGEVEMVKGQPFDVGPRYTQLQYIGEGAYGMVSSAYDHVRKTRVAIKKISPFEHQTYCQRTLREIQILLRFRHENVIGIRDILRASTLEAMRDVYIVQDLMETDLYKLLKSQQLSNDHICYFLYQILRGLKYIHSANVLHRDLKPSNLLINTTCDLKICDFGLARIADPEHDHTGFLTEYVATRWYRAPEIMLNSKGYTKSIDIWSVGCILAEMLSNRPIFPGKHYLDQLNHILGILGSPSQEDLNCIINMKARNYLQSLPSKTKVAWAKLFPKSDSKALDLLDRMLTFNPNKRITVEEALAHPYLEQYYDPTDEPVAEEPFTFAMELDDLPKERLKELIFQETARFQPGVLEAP
Kind of assay: Omnia continuous-read kinase assay for potency against MEK1 activated ERK1. The format is biochemical. The conditions noted are these: ATP at KM, WT. Summed up: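 Apparent IC50 came from initial reaction slopes (RFU vs time) plotted against log inhibitor with a variable-slope fit. Reactions were started with ERK1 (4 nM final) added to 50 μM ATP, roughly at its appKM, and 10 μM Sox-conjugated ST17 peptide in 20 mM Tris pH 7.5, 5 mM MgCl2. Fluorescence was monitored every 71 seconds.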

T1 sequence (P27361 whole entry): as above

Regarding `C=CC(=O)Nc1cc(OCC(N)=O)ccc1Nc1nc(Nc2cc(OC)ncc2C)ncc1C(F)(F)F` [Compound I-398, N-(5-(2-amino-2-oxoethoxy)-2-((2-((2-methoxy-5-methylpyridin-4-yl)amino)-5-(trifluoromethyl)pyrimidin-4-yl)amino)phenyl)acrylamide], the “ERK1 Mass Mod (%)” value in assay [1] is “E (a mass modification of ≧70%)”. For the same compound, the EC50 in assay [2] was under 100 nM. Also, the IC50 in assay [3] was under 100 nM.

For `C=CC(=O)Nc1cc(CN2CCOCC2)ccc1Nc1nc(Nc2cc(OC)ncc2C)ncc1C(F)(F)F` [Compound I-399, N-(2-((2-((2-methoxy-5-methylpyridin-4-yl)amino)-5-(trifluoromethyl)pyrimidin-4-yl)amino)-5-(morpholinomethyl)phenyl)acrylamide], the “ERK1 Mass Mod (%)” value in assay [1] is “E (a mass modification of ≧70%)”. Also, the EC50 in assay [2] fell in the range of 101 to 500 nM. Further, in assay [3], the concentration for half-maximal inhibition (IC50) was 101 to 500 nM.

As to `C=CC(=O)Nc1cc(CCC(N)=O)ccc1Nc1nc(Nc2cc(OC)ncc2C)ncc1C(F)(F)F` [Compound I-400, N-(5-(3-amino-3-oxopropyl)-2-((2-((2-methoxy-5-methylpyridin-4-yl)amino)-5-(trifluoromethyl)pyrimidin-4-yl)amino)phenyl)acrylamide], in assay [1], the “ERK1 Mass Mod (%)” value was “E (a mass modification of ≧70%)”. Further, the EC50 in assay [2] is under 100 nM. Besides, the IC50 in assay [3] is under 100 nM.

With `C=CC(=O)Nc1cc(C(=O)N2CCN(S(C)(=O)=O)CC2)ccc1Nc1nc(Nc2cc(OC)ncc2C)ncc1C(F)(F)F` [Compound I-401, N-(2-((2-((2-methoxy-5-methylpyridin-4-yl)amino)-5-(trifluoromethyl)pyrimidin-4-yl)amino)-5-(4-(methylsulfonyl)piperazine-1-carbonyl)phenyl)acrylamide], in assay [1], the “ERK1 Mass Mod (%)” value is “E (a mass modification of ≧70%)”. In assay [2], the EC50 was 101 to 500 nM. Also, the IC50 in assay [3] lay within 101 to 500 nM.

Take `C=CC(=O)Nc1cc(C)ccc1Nc1nc(Nc2cc(OC)ncc2C(F)F)ncc1C(F)(F)F` [Compound I-431, N-(2-((2-((5-(difluoromethyl)-2-methoxypyridin-4-yl)amino)-5-(trifluoromethyl)pyrimidin-4-yl)amino)-5-methylphenyl)acrylamide]: the “ERK1 Mass Mod (%)” value in assay [1] was “E (a mass modification of ≧70%)”. For the same compound, the EC50 in assay [2] is 501 to 999 nM. In addition, the concentration for half-maximal inhibition (IC50) in assay [3] fell in the range of 501 to 999 nM.

These data come from patent US9561228B2 (Celgene Avilomics Research, Inc., priority 2013, dated 2017).
